Reference: US8809319B2, “Substituted 8-oxa-10,11-dihydroimidazo[2,3-a]bicyclo[3.2.1]oct-3-enes and use thereof as an insecticide” (priority 2009, dated 2014)
In brackets after ≈: the same amount, converted by molar mass. Like-named read-outs stand apart in the source and are kept apart here.

How the values were obtained:
Aphis craccivora = experiment: Insecticidal activity against aphids, dipping method; assay type: in vivo; conditions: for LC50 / mortality at 500 µg/mL: Aphis craccivora; for mortality at 500 µg/mL: read-out: Aphis craccivora Mortality rate (%, 500 mg L^−1)
Method: Aphids, which belong to the Homoptera and have piercing-sucking mouth parts, are a common pest for agricultural crops. Aphis craccivora was used as the subject, and a dipping method was employed for testing.
Testing method: Each sample was precisely weighed, and 2 mL of DMSO and 18 mL of water were added respectively; then, three drops of the emulsion agent 200I were added to form a testing liquid; a blank was also prepared by adding three drops of emulsion agent 220I to 2 mL of DMSO and 18 mL of water. Broad bean leaves adhered by a certain number of insects were immersed in the testing liquid for three to five seconds, then removed and air-dried; the insects were moved into a clean container together with feed, and the container was placed in a dry, thermostatic recovery room. After 24 hours, the number of dead insects was checked.

[1] = tested on: Pseudaletia separata Walker; experiment: Insecticidal activity against armyworms, leaf-dipping method; assay type: in vivo; conditions: for LC50 / mortality at 500 µg/mL: Mythimna separata; for mortality at 500 µg/mL: read-out: Pseudaletia separata Walker Mortality rate (%, 500 mg L^−1)
Source text: Second instar Pseudaletia separata Walker larvae were used as the subjects and the dipping method was employed for testing.
Pseudaletia separata Walker, which is a very important lepidopterans pest of various grains, can be suitably used in various of applications, for example, in the study of toxicity, such as the stomach toxicity, contact poisoning, comprehensive and residual effects of insecticides, and other aspects of insect toxicology, as well as the screen test for new compounds. Pseudaletia separata Walker extermination activity was tested in accordance with a method reported in the literature.
Operation procedure of the leaf-dipping method: Each sample was precisely weighed, and 2 mL of DMSO and 18 mL of water were added respectively; and then, three drops of the emulsion agent 2001 (procured from Shanghai Nongyaochang Co., Ltd.) were added to form the test liquid. A blank was also formulated by adding three drops of the 2201 emulsion agent to 2 mL of DMSO and […]. Fresh corn leaves were torn into small pieces and immersed for about five seconds in the liquid, then removed, air-dried, and placed in a 100-mL jar. About 20 2nd instar larvae were introduced into the jar. The jar was closed using white gauze and a rubber band, and the larvae were fed with corn soaked with the liquid continuously. The mortality rate of the larvae was checked after five days. The requisite temperature was 22° C. to 27° C., humidity 70% to 80%. There was no need to correct the mortality rates for each treatment if the blank mortality rate was 5% or less; however, if the control mortality rate was 5% to 20%, Abbott's correction should be used for the mortality rates for each treatment. Abbott's formula: Corrected mortality rate=[(treated mortality rate−control mortality rate)/(100−control mortality rate)×100].

[2] = tested on: Nilaparvata lugens susceptible strain; experiment: Insecticidal activity against Nilaparvata lugens, micro-drip method, susceptible strain; assay type: in vivo; conditions: for Magnitude of resistance / Relative toxicity / LD50 (ng/pest): susceptible strain; for Relative toxicity: relative to imidacloprid; for LD50 (ng/pest): topical micro-drip, 48 hours
Method: (§1) Nilaparvata lugens, which belongs to the Homoptera and has piercing-sucking mouth parts, is a common pest for agricultural crops. Nilaparvata lugens was used as the subject, and the micro-drip measurement method reported by Nagata was employed for testing.
(§2) Operation procedure: Unmated winged females two to three days after eclosion were selected as the test subjects; the compounds were diluted in acetone to a series of concentrations. The insects were paralyzed by carbon dioxide, and the liquid (0.08 μL) was dripped onto the pronotum of the insects using a manual micro-dripper (Burkard Manufacturing Co., Ltd., Rickmansworth, UK). Each of the concentrations was used to treat about 30 insects in triplicate. Acetone was used as the control. The treated adult insects were cultured on rice seedlings grown without soil in an incubator (20×20×10 cm), where the temperature was controlled at 25±1° C. with 16/8 hours of light and dark cycle. The results were checked after 48 hours, and the LD50 was calculated using a standard probability analysis method.

[3] = tested on: Nilaparvata lugens resistant strain; experiment: Insecticidal activity against Nilaparvata lugens, micro-drip method, resistant strain; assay type: in vivo; conditions: for Magnitude of resistance: resistant strain versus susceptible strain; for Relative toxicity / LD50 (ng/pest): resistant strain; for Relative toxicity: relative to imidacloprid; for LD50 (ng/pest): topical micro-drip, 48 hours
Method: as §1, §2

[4] = tested on: nicotinic acetylcholine receptors of Periplaneta americana; experiment: Mechanism of action, electrophysiological testing on cockroach nAChRs; assay type: cell-based
Source text: (§3) The compound (1a) was separately subjected to electrophysiological testing and isotope marker substitution testing.

[5] = tested on: N1 α 1/β 2 receptors expressed by the oocytes; experiment: Mechanism of action, electrophysiological testing on receptors expressed by oocytes; assay type: cell-based
Source text: as §3

[6] = 24 h, read-out: Aphis craccivora LC50 (mmol L^−1)
[7] = foliar, 120 h, read-out: Pseudaletia separata Walker LC50 (mmol L^−1)

Structure (SMILES) | mortality at 500 µg/mL (Aphis craccivora; 24 h) [%] | mortality at 500 µg/mL ([1]; foliar, 120 h) [%] | Magnitude of resistance [2] | Relative toxicity [2] | LD50 (ng/pest) [2] [ng/pest] | Magnitude of resistance [3] | Relative toxicity [3] | LD50 (ng/pest) [3] [ng/pest] | further results
O=[N+]([O-])NC1=NCCN1Cc1ccc(Cl)nc1 [Imidacloprid, reference compound] | 100 | 100 | 1.00 | 1.00 | 0.1316 ± 0.0154 | 168.40 | 1.00 | 22.1614 ± 3.7522 | LC50 (Aphis craccivora; [6]): 8.93 µg/mL (≈ 34.9 µM); LC50 [1, 7]: 38.7 µg/mL (≈ 151 µM)
O=[N+]([O-])C1=C2N(Cc3ccc(Cl)nc3)CCN2[C@@H]2CC[C@H]1O2 [Compound 1a, 9-((6-chloropyrid-3-yl)methyl)-4-nitro-8-oxa-10,11-dihydroimidazo-[2,3-a]-bicyclo-[3,2,1]-oct-3-ene] | 100 | 100 | 1.00 | 1.77 | 0.0742 ± 0.0106 | 6.64 | 50.00 | 0.4925 ± 0.0811 | LC50 (Aphis craccivora; [6]): 1.52 µg/mL (≈ 4.71 µM); LC50 (Aphis craccivora; read-out: LC50 against aphids): 1.52 µg/mL (≈ 4.71 µM); LC50 [1, 7]: 12.5 µg/mL (≈ 38.7 µM); LC50 ([1]; read-out: LC50 against Pseudaletia separata Walker): 12.5 µg/mL (≈ 38.7 µM); activity against susceptible Niloparvata lugens versus imidacloprid [2]: generally the same as that of imidacloprid; activity against imidacloprid-resistant Niloparvata lugens versus imidacloprid [3]: 50 times; mode of action on nicotinic acetylcholine receptor (nAChRs) ([4]; conclusion from electrophysiological and isotope marker substitution testing): antagonist; agonistic action on nicotinic acetylcholine receptors of Periplaneta americana ([4]; electrophysiological testing): no agonistic action; inhibition of the agonist response to acetylcholine ([4]; receptor preparation not given): can inhibit the agonist response to acetylcholine; agonistic action on N1 α 1/β 2 receptors expressed by the oocytes [5]: no agonistic action
O=[N+]([O-])C1=C2N(Cc3ccc(Cl)nc3)CCN2[C@H]2CCC[C@@H]1O2 [Compound 2a, 10-((6-chloropyrid-3-yl)methyl)-4-nitro-9-oxa-11,12-dihydroimidazo-[2,3-a]-bicyclo-[3,3,1]-non-3-ene] | 87.3 | 0 | 1.00 | 0.32 | 4.1440 ± 0.6136 | 4.58 | 1.17 | 18.9795 ± 2.3501 | –
O=[N+]([O-])C1=C2N(Cc3ccccc3)CCN2[C@@H]2CC[C@H]1O2 [Compound 1c, 9-benzyl-4-nitro-8-oxa-10,11-dihydroimidazo-[2,3-a]-bicyclo-[3,2,1]-oct-3-ene] | 13.6 | 0 | – | – | – | – | – | – | –
O=[N+]([O-])C1=C2N(Cc3ccc(Cl)cc3)CCN2C2CCCC1O2 (stereo not drawn) [Compound 2d, 10-(4-chlorobenzyl)-4-nitro-9-oxa-11,12-dihydroimidazo-[2,3-a]-bicyclo-[3,3,1]-non-3-ene] | – | – | – | – | – | – | – | – | Aphis craccivora Mortality rate (%, 500 mg L^−1) (Aphis craccivora; in vivo): 38.9%; Pseudaletia separata Walker Mortality rate (%, 500 mg L^−1) ([1]; in vivo): 0%
O=[N+]([O-])C1=C2N(Cc3cnc(Cl)s3)CCN2[C@@H]2CC[C@H]1O2 [Compound 1b, 9-((2-chlorothiazol-5-yl)methyl)-4-nitro-8-oxa-10,11-dihydroimidazo-[2,3-a]-bicyclo-[3,2,1]-oct-3-ene] | 100 | 100 | – | – | – | – | – | – | –
O=[N+]([O-])C1=C2N(Cc3ccccc3)CCN2[C@H]2CCC[C@@H]1O2 [Compound 2c, 10-benzyl-4-nitro-9-oxa-11,12-dihydroimidazo-[2,3-a]-bicyclo-[3,3,1]-non-3-ene] | – | 0 | – | – | – | – | – | – | mortality at 500 µg/mL (Aphis craccivora; 500 mg L^−1, dipping, after 24 hours): 55.6%
O=[N+]([O-])C1=C2N(Cc3ccc(Cl)cc3)CCN2[C@@H]2CC[C@H]1O2 [Compound 1d, 9-(4-chloro-benzyl)-4-nitro-8-oxa-10,11-dihydroimidazo-[2,3-a]-bicyclo-[3,2,1]-oct-3-ene] | 95.7 | 0 | – | – | – | – | – | – | –
O=[N+]([O-])C1=C2N(Cc3cnc(Cl)s3)CCN2[C@H]2CCC[C@@H]1O2 [Compound 2b, 10-((2-chlorothiazol-5-yl)methyl)-4-nitro-9-oxa-11,12-dihydroimidazo-[2,3-a]-bicyclo-[3,3,1]-non-3-ene] | 98.2 | 0 | – | – | – | – | – | – | –
